Test results from the METLIN SMRT retention time set (Domingo-Almenara et al. 2019).

Assay: gradient 5% acetonitrile 3 min, to 50% in 2 min, to 85% in 15 min, held 3 min, 100 µL/min
Settings: column: Zorbax Extend-C18 2.1 x 50 mm; eluents: water / acetonitrile, 0.1% formic acid
Method in brief: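 Over 3 months, pure standards in mixtures of ~100 molecules were run by HPLC coupled to a quadrupole time-of-flight mass spectrometer in positive and negative ionization mode. The column was a Zorbax Extend-C18 (2.1 × 50 mm, 1.8 μm) at 100 μL/min, eluted with water and acetonitrile each holding 0.1% formic acid, with 40 μL dead and 900 μL dwell volumes. Retention time was determined from adduct peaks chosen by software and checked manually.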

RP-LC retention time [s] | Structure (SMILES)
578 | CCCCC(=O)Nc1ccc(N2CCOCC2)cc1C(=O)O
809 | CC(C)CNC(=O)C1CCN(S(C)(=O)=O)c2cc(Cl)ccc2O1 (stereo not drawn)
710 | COC1CCC12CCN(C(=O)C1CC1)CC2 (stereo not drawn)
914 | O=C(Cc1c[nH]c2ccccc12)N1CCC(c2noc(-c3ccccc3)n2)CC1
1160 | Cc1cc(C)c2c(=O)n(Cc3nc(-c4ccccc4)oc3C)c(=O)n(C)c2n1
569 | O=C1CN(C(=O)c2cnccn2)c2ccccc2N1
598 | CN(C)CCNC(=O)Cc1cccn1-c1ccc(F)cc1
644 | CNC(=O)c1cccc(-c2noc(C)n2)c1
1030 | CCN1C(=O)COc2ccc(-c3noc(COc4ccc(F)cc4)n3)cc21
712 | Fc1ccc(CN2CCC(F)(c3nc(-c4cnccn4)no3)CC2)c(Cl)c1
588 | Cc1ccn2cc(CC(=O)Nc3ccccc3)nc2c1
660 | CS(=O)(=O)N1CC(c2noc(-c3cccnc3)n2)C2(CCOCC2)C1 (stereo not drawn)
834 | COc1ccc(N2C(=O)C3N=NN(Cc4nc(-c5ccc6c(c5)OCO6)no4)C3C2=O)cc1OC (stereo not drawn)
705 | CCOc1ccc(NC(=O)Cn2nc3cc(C)nc(-c4ccccc4)n3c2=O)cc1
759 | COC(=O)c1ccccc1NC(=O)c1cnc2sc(C)cn2c1=O
1020 | Cc1cc(Cl)ccc1NC(=O)C1CCN(S(=O)(=O)c2c(C)nn(-c3ccccc3)c2C)CC1
811 | COc1ccccc1NC(=O)C1CCc2nc(N3CCCCC3)ncc2C1 (stereo not drawn)
906 | CCOc1cccc2cc(C(=O)Nc3ccc4c(c3)C(=O)N(C)C4=O)oc12
748 | CN1C(=O)Cc2cc(NC(=O)c3ccc(C(F)(F)F)cc3)ccc21
1210 | COc1ccccc1Nc1nc(-c2ccc(C)cc2)c(C)s1
935 | COc1ccc(CNC(=O)C2(C)CCCN(S(=O)(=O)c3cccc(C)c3)C2)cc1 (stereo not drawn)
692 | Cc1oc(-c2[nH]ncc2C(=O)N(C)C)cc1S(=O)(=O)NCCC(C)C

RP-LC retention time [s] | Structure (SMILES)
1340 | Cc1ccc(C)c(N2CCN(c3ccc4cc(S(=O)(=O)N5CCCCC5C)ccc4n3)CC2)c1 (stereo not drawn)
747 | COc1cccc(NC(=O)C2CCN(S(=O)(=O)c3cc(C(=O)N4CCOCC4)cs3)CC2)c1
1120 | CCc1ccc(-c2noc(CN3C(=O)COc4ccccc43)n2)cc1
768 | Cc1cccc(-c2nc3nc(C)cc(N4CCCC4)n3n2)c1
890 | CCS(=O)(=O)c1nc2ccc(NS(=O)(=O)c3ccc(F)cc3Cl)cc2s1
1340 | Cc1ccccc1-c1noc(C2CCCN2S(=O)(=O)c2ccc3c(c2)CCCC3)n1 (stereo not drawn)
751 | CC(C)n1c(-c2cccc(C(=O)NCc3ccco3)c2)nc2cccnc21
879 | O=C(NCC(O)(c1ccccc1)C(F)(F)F)NC1CCCCC1 (stereo not drawn)
789 | Cc1nc(-c2noc(-c3ccccc3)n2)cn1CC(=O)NCc1cccs1
839 | CC(=O)c1cccc(NS(=O)(=O)c2ccc(F)c(Cl)c2)c1
950 | O=C(C1CCCN(c2ncnc3c2nc2n3CCCCC2)C1)N(Cc1ccco1)C1CCCC1 (stereo not drawn)
600 | CCOc1cccc(C2CC(c3ccc4c(c3)OCO4)=NC3(CCN(C(C)C)CC3)N2)c1O (stereo not drawn)
942 | COc1cccc(S(=O)(=O)N2CCc3c(c(-c4nnc(-c5ccc(F)cc5)o4)nn3C)C2)c1
1080 | CCn1cc(-c2nc(C(=O)N3CCc4ccccc43)cs2)c2cccnc21
1010 | COc1cccc(N2C(=O)C3N=NN(Cc4nc(-c5ccc(Cl)cc5)no4)C3C2=O)c1 (stereo not drawn)
659 | O=C(c1cc(-c2ccccn2)n[nH]1)N1CCN(C(=O)C2CCCCC2)CC1
1150 | CCOc1ccccc1-c1noc(-c2nnn3c2COC(c2ccc(Cl)cc2)C3)n1 (stereo not drawn)
1160 | O=C(c1c(F)cccc1Cl)N1CCc2nc(-c3ccc(Cl)cc3)ncc2C1
1270 | CCOC(=O)c1c(C)oc2ncnc(Nc3ccc(OC)c(Cl)c3)c12
955 | CC(C)c1ccccc1OCC(=O)Nc1cnn(C)c(=O)c1N1CCOCC1
883 | CCn1nc(C)cc1C(=O)N(Cc1ccccn1)c1nc2c(OC)ccc(OC)c2s1
1200 | O=c1cc(-c2ccncc2)nc(N2CCCC2)n1Cc1ccccc1

RP-LC retention time [s] | Structure (SMILES)
654 | COc1ccc(-c2nc3ccc(C4=NNC(=O)CC4C)cc3[nH]2)cc1 (stereo not drawn)
562 | Cc1nnc2cc(N3CCN(C(=O)Nc4cccc(Br)c4)CC3)cnn12
1120 | N#Cc1cnc2ccc(Cl)cc2c1N1CCC(C(=O)Nc2cccc(C(F)(F)F)c2)CC1
1040 | COc1ccc(C(=O)Nc2nc3c(s2)CCCC3C(=O)NCCC2=CCCCC2)cc1 (stereo not drawn)
699 | COc1ccccc1C1C2=C(CC(C)(C)CC2=O)Nc2ccccc2N1C(=O)CCC(=O)O (stereo not drawn)
812 | CCN1C(=O)c2cc(C(=O)NCc3cccc(C)c3)nn2CC1(C)C(=O)NC1CCCC1 (stereo not drawn)
646 | CCOC(=O)c1[nH]c(C)c(CCC(=O)N2CCC(C(=O)N3CCOCC3)CC2)c1C
980 | CC(=O)N1CCC(C(=O)Nc2ccsc2-c2nc(-c3ccccc3)no2)CC1
814 | CCOc1ccccc1NC(=O)C1CCN(C(=O)C2Sc3ccccc3NC2=O)CC1 (stereo not drawn)
702 | O=C(CSc1nc(N2CCCCC2)nc2ccccc12)Nc1ccccc1
1320 | CCc1ccccc1NC(=O)c1c(O)c2cccnc2n(-c2cccc(F)c2)c1=O
566 | Cn1c(C2CCC(CNC(=O)Cn3c(=O)oc4ccccc43)CC2)nc2ccccc21 (stereo not drawn)
918 | COC(=O)C(C)N1CN(c2ccc(C)cc2)c2ncccc2S1(=O)=O (stereo not drawn)
718 | Clc1ccc(Cc2nc3nc4c(c(N5CCN(c6ccccn6)CC5)n3n2)CCCC4)cc1
692 | c1ccc(Cn2c(-c3ccc(OC[C@H](C4CCNCC4)n4c(-c5ccccc5)nc5ccccc54)cc3)nc3ccccc32)cc1
647 | Cc1ccn2cc(-c3ccc(NC(=O)c4ccccc4Br)cc3)nc2n1
749 | CN(CC1(C)CCOCC1)C(=O)NC1CCCCC1
1050 | COc1ccc(-c2ncc3c(n2)CCN(S(=O)(=O)c2ccc(C)cc2)C3)cc1
876 | COc1cc(NC(=O)Cn2cccc2-c2nnc(C3CCC3)o2)cc(OC)c1
1160 | O=C(c1cccc(Br)c1)N1CCc2nc(-c3ccc(Cl)cc3)ncc2C1
593 | O=C(c1cccc(Cl)c1)N1CCN(c2cnn3c(C4CC4)nnc3c2)CC1
959 | O=C(Nc1ccc(Cl)cc1)C1CCCN(S(=O)(=O)c2c[nH]c(C(=O)N3CCCCCC3)c2)C1 (stereo not drawn)

RP-LC retention time [s] | Structure (SMILES)
551 | CCNc1cc(N2CCCC(CCC(=O)NCCN3CCCCC3)C2)ncn1 (stereo not drawn)
873 | Cc1nc(-c2ccccc2)cc2nn(CC(=O)NCc3ccccc3)c(=O)n12
658 | CCOC(=O)c1ccc2nc(C(F)(F)F)nc(NCCCN3CCOCC3)c2c1
782 | O=S(=O)(c1ccc(F)c(F)c1)N1CCCC(Cn2c(C3CC3)nc3cccnc32)C1 (stereo not drawn)
938 | COc1ccc(NC(=O)Nc2cc(F)c3nc(N4CCOCC4)ccc3c2)cc1OC
783 | Cc1ccc(Cl)cc1NC(=O)N1CCc2nc(-c3ccccc3)ncc2C1
1070 | O=C(Nc1ccccc1)N1CCN(c2nc3ccccc3nc2C(F)(F)F)CC1
849 | O=C(c1cccc2[nH]ccc12)N1CCC2(CC1)N=C(c1cccc(Br)c1)NO2
571 | Cn1ccnc1N1CCN(C(=O)CSCc2ccccc2)CC1
620 | CN(C)CCNC(=O)c1cc(-c2ccccc2)nc2ccccc12
582 | O=C(Nc1ccccc1Cl)NC1CCCN(c2cc(-c3ccncc3)[nH]n2)C1 (stereo not drawn)
645 | O=C(NCCC1=CCCCC1)C1CCCN(c2ccncc2)C1 (stereo not drawn)
857 | CC(C)(Cc1ccc2ccccc2c1)NC[C@@H](O)COc1cccc(Cl)c1C#N
610 | O=C(Nc1ccc(N2CCOCC2)cc1)C1CCN(c2cnc3nccnc3c2)CC1
834 | O=C1CCCc2c1cc(C(=O)NCCc1ccco1)c(=O)n2-c1ccc(F)cc1
1010 | O=C(CS(=O)Cc1cnn(-c2ccccc2)c1-n1cccc1)N1CCC(Cc2ccccc2)CC1 (stereo not drawn)
758 | O=C(c1n[nH]c2c1CCCC2)N1CCN(c2ccc(=O)n(-c3ccc(Cl)cc3)n2)CC1
982 | CCOc1ccccc1-c1noc(Cn2c(=O)n(-c3ccccc3F)c(=O)c3sccc32)n1
921 | CCc1nc2ccccc2c(=O)n1Cc1noc(COc2ccc(OC)cc2)n1
1300 | Cc1ccc(C2Cn3nnc(-c4nc(-c5ccc(F)cc5)no4)c3CO2)c(C)c1 (stereo not drawn)
674 | Cc1nn(C)c(C)c1CCNC(=O)Nc1ccc(Br)cc1

Structure (SMILES) | RP-LC retention time [s]
COc1ccc2c(c1)C1(CCN(C(=O)c3ccc(C)c(F)c3)C1)C(=O)N2 (stereo not drawn) | 745
